Experimental findings from patent US4764515A, “Antitussive and central sedative composition of d-isomer of 3-(4-phenyl-1-piperazinyl)-1,2-propanediol” (priority 1983, dated 1988) are described below.

Entries after “also recorded” stand apart in the source; their conditions may differ. Like-named read-outs stand apart in the source and are kept apart here.

The subject of series [1] is Central Nervous System. The series is described as follows: Electroencephalographic and electromiographic recording in the rat with chronically implanted electrodes (CNS activity). To be noted: mean ± SE, controls 4.86 ± 0.60. Type of series: in vivo. The source says: (§1) Tests have been carried out to determine the CNS activity, by evaluating the influence on the sleeping time induced by barbiturates in the mouse, according to the method of F. M. Berger "Methods in Drug Evaluation" Proc. Int. Symp. Milan, September 1965, North Holland Pubbl. Co., and by recording the electroencephalographic and electromiographic curves in the rat with chronically implanted electrodes, calculating the time (in seconds) in the awakening and sleeping condition (including synchronized and unsynchronized sleep).
(§2) The compounds under exam have been administered orally, in the sleeping time test 30 minutes before the i.p. injection of 35 mg/kg of secobarbital, while in the electroencephalographic test at the beginning of recording.

The subject of series [2] is oedema by carrageenin. The series is described as follows: Carrageenin oedema test in the rat (anti-inflammatory activity). Format: in vivo. The following applies: po, p.o. 1 h before phlogistic agent, C.L. 95%. From the text:
(§3) Screening for anti-inflammatory activity has been carried out employing the established carrageenin and ovoalbumin oedema tests in the rat, according to the methods described by C. A. Winter et al., Proc. Soc. Exp. Biol. Med., 111, 544, 1962 and Turne in "Screening Methods in Pharmacology" Acad. Press N.Y., cpt. 14, p. 164, 1965, respectively.
(§4) The compounds under exam have been administered by the oral route one hour before the injection of the phlogistic agent.
(Carrageenan injected into the paw causes an acute inflammation.)

A short description of series [3]: Acute toxicity, rat. The following applies: in vivo, 14 days from administration, C.L. 95%, read-out: DL50. From the text: (§5) Acute toxicity (at 14 days from the admi-
(§6) nistration) of (±) racemic dropropizine
(§7) (+) dextrorotatory isomer and (-) laevorotatory isomer

Series [4] deals with 5% citric acid aerosol. The series is described as follows: Antitussive activity in the guinea pig after exposure to 5% citric acid aerosol. Type of series: in vivo. The following applies: Cavia porcellus, po, read-out: DE50 5% Citric acid (antitussive effect).
Series [5] is described as follows: Acute toxicity, mouse. The following applies: in vivo, 14 days from administration, C.L. 95%, read-out: DL50.
Text: as §5, §6, §7

For series [6], the system named is electrical stimulation of the vagus nerv. The series is described as follows: Antitussive activity in the guinea pig after electrical stimulation of the vagus nerve. Type of series: in vivo. The following applies: Cavia porcellus, iv, intravenously 5 min before electric stimulation, C.F. 95%, read-out: DE50 Electric stimulus (antitussive effect). Here is the method:
(§8) The results of the antitussive activity tests, carried out in the guinea pig after electrical stimulation of the vagus nerv and exposure for 5 minutes to a 5% citric acid aerosol according to the methods of R. M. Piekirning et al., Arzn.
(§9) The compounds under exam have been administered intravenously 5 minutes before the electric stimulation and orally 60 minutes before the citric acid aerosol.

Series [7] has as its system oedema by ovoalbumin. The series is described as follows: Ovoalbumin oedema test in the rat (anti-inflammatory activity). Format: in vivo. To be noted: po, p.o. 1 h before phlogistic agent, C.L. 95%.
Text: as §3, §4

Series [8] concerns Central Nervous System. The series is described as follows: Influence on the sleeping time induced by barbiturates in the mouse (CNS activity). The following applies: 30 min before secobarbital 35 mg/kg i.p., mean ± SE, controls 22.58 ± 1.14. Type of series: in vivo.
Text: as §1, §2

Series [9] relates to antiinflammatory activity. The series is described as follows: Antiinflammatory activity (overall statement). Type of series: in vivo, rat. To be noted: in words.
Text: as §3, §4

In series [10] the test system is antitussive activity. The series is described as follows: Antitussive activity (overall statement). To be noted: in words; versus racemic mixture; listed as laevorotatory isomer. Format: in vivo, guinea pig. The protocol:
as §8, §9

The mark [11] stands for this setting: 3 h, 3th hour, read-out: DE50 Oedema by carrageenin 3th hour.
Where [12] appears, read: 6 h, 6th hour, read-out: DE50 Oedema by carrageenin 6th hour.
The mark [13] stands for this setting: 1st hour, read-out: DE50 Oedema by carrageenin 1st hour.
Setting [14] is: guinea pig, orally 60 min before citric acid aerosol (5 min exposure), C.F. 95%.
The mark [15] stands for this setting: 3 h, 3th hour, read-out: DE50 Oedema by ovoalbumin 3th hour.
[16] abbreviates: 6 h, 6th hour, read-out: DE50 Oedema by ovoalbumin 6th hour.
Where [17] appears, read: 1st hour, read-out: DE50 Oedema by ovoalbumin 1st hour.

On to `OC[C@H](O)CN1CCN(c2ccccc2)CC1` [(+), d-isomer of 3-(4-phenyl-1-piperazinyl)-1,2-propanediol], for which the “Time spent in the sleeping condition” value is 6.18 ± 0.72 s in series [1] (25 mg/kg p.o.), 12.36 ± 0.9 s in series [1] (50 mg/kg p.o.) and 28.92 ± 1.7 s in series [1] (100 mg/kg p.o.). Further, the ED50 in [2] (setting [11]) was found to be 80.5 mg/kg; in [2] (setting [12]) it was 69.7 mg/kg; in series [2] (setting [13]), 43.9 mg/kg; in [4] (setting [14]), 141 mg/kg; in series [6] it was 23.5 mg/kg. Further, the LD50 at 336 h was 363 mg/kg in series [3] (ip), 721 mg/kg in [3] (po), 319 mg/kg in series [5] (ip) and 872 mg/kg in [5] (po).

In the case of `OCC(O)CN1CCN(c2ccccc2)CC1` (racemic) [(±), 3-(4-phenyl-1-piperazinyl)-1,2-propanediol], the ED50 in series [7] (setting [15]) was 28.5 mg/kg; in series [7] (setting [16]), 37.1 mg/kg; in [7] (setting [17]) it was 23.6 mg/kg; in series [2] (setting [11]), 77.9 mg/kg; in [2] (setting [12]) it was 117 mg/kg; in series [2] (setting [13]), 39 mg/kg. The ED50 came out at 117 mg/kg in [4] (setting [14]) and 11.7 mg/kg in series [6]. Besides, the “Duration of the sleeping time induced by barbiturates” value in [8] (50 mg/kg p.o.) came to 118.83 ± 25.69 min; in [8] (100 mg/kg p.o.), 132.33 ± 13.16 min; in series [8] (200 mg/kg p.o.), 134.16 ± 17.55 min. In addition, the LD50 at 336 h in [3] (ip) came out at 393 mg/kg; in [3] (po), 607 mg/kg; in series [5] (ip) it was 340 mg/kg; in series [5] (po), 900 mg/kg.

Take `OC[C@@H](O)CN1CCN(c2ccccc2)CC1` [(-), (-)-dropropizine]: the ED50 in series [7] (setting [15]) came to 72.2 mg/kg; in [7] (setting [16]), 121 mg/kg; in [7] (setting [17]), 55.6 mg/kg; in series [2] (setting [11]), 212 mg/kg; in [2] (setting [12]), 241 mg/kg; in series [2] (setting [13]) it was 233 mg/kg. Also, the ED50 in series [4] (setting [14]) was determined as 151 mg/kg; in series [6], 13.5 mg/kg. The “Duration of the sleeping time induced by barbiturates” value came out at 29.5 ± 2.59 min in series [8] (50 mg/kg p.o.), 54.4 ± 7.36 min in series [8] (100 mg/kg p.o.) and 128.83 ± 17.14 min in series [8] (200 mg/kg p.o.). For the same compound, the “Time spent in the sleeping condition” value in series [1] (25 mg/kg p.o.) turned out to be 5.8 ± 0.84 s; in series [1] (50 mg/kg p.o.), 5.7 ± 0.48 s; in [1] (100 mg/kg p.o.), 13.68 ± 1.80 s. The antiinflammatory activity entry in [9] is “unchanged antitussive and antiinflammatory activity”. The antitussive activity result in series [10] is “unchanged antitussive and antiinflammatory activity; also recorded: same antitussive activity as the racemic mixture”. Besides, the LD50 at 336 h amounted to 401 mg/kg in [3] (ip), 887 mg/kg in series [3] (po), 408 mg/kg in series [5] (ip) and 1290 mg/kg in series [5] (po).

`COc1ccc2c3c1O[C@H]1[C@@H](O)C=C[C@H]4[C@@H](C2)N(C)CC[C@@]341` [Codeine, codeine, reference compound]: the ED50 in series [4] stood at 65.1 mg/kg.
